# Test results reported in patent US6410558B1, “Fungicides for the control of take-all disease of plants” (Monsanto Technology LLC, priority 1991, dated 2002).
# Test system: Gaeumannomyces graminis var. tritici (Ggt)
# Experiment: In vitro Assay: mycelial growth of Ggt on minimal media agar plates containing test compound
# Format: cell-based
# Conditions: dark, 19-20° C., 4 to 5 days, diameter of mycelial growth; for inhibition at 0.1 ppm / inhibition at 1 ppm / inhibition at 10 ppm: Gaeumannomyces graminis; for inhibition at 0.1 ppm / In vitro (ppm) 0.1, Percent Inhibition: 0.1 ppm in minimal media agar; for inhibition at 0.1 ppm: read-out: In vitro (ppm) 0.1, Percent Inhibition; for inhibition at 1 ppm / In vitro (ppm) 1, Percent Inhibition: 1 ppm in minimal media agar; for inhibition at 1 ppm: read-out: In vitro (ppm) 1, Percent Inhibition; for inhibition at 10 ppm / In vitro (ppm) 10, Percent Inhibition: 10 ppm in minimal media agar; for inhibition at 10 ppm: read-out: In vitro (ppm) 10, Percent Inhibition
# Experimental: The test compounds (0.25 mL of an appropriate stock solution in acetone) are incorporated into 25 mL minimal media agar [(prepared by autoclaving a solution of 17.5 g Czapek Dox broth (Difco), 7.5 g purified agar or Bacto-agar (Difco), and 500 mL distilled/deionized water, and then adding 50 μL of 1 mg/mL thiamine hydrochloride and 50 μL of 1 mg/mL biotin in 5% ethanol] and plates are prepared.
# Each plate is inoculated by placing in a triangular shape three 4-mm plugs of Gaeumannomyces graminis var. tritici (Ggt) grown on the minimal media agar described above. The plates are incubated in the dark at 19-20° C. for 4 to 5 days. The growth of the fungus is measured as the diameter of the mycelial growth. The result is expressed as Percent Inhibition, calculated as [1-[(mm growth on treated plate −4)/(mm growth on control plate −4)]]×100.
Structure (SMILES),inhibition at 0.1 ppm [%],inhibition at 1 ppm [%],inhibition at 10 ppm [%],"In vitro (ppm) 0.1, Percent Inhibition [%]","In vitro (ppm) 1, Percent Inhibition [%]","In vitro (ppm) 10, Percent Inhibition [%]"
"CCNC(=S)c1c(Cl)cccc1[Si](C)(C)C [Example 76, 2-Chloro-N-ethyl-6-(trimethylsilyl)thiobenzamide]",< 0,45,79,–,–,–
"CC(C)SC(=O)c1c(Cl)cccc1[Si](C)(C)C [Example 78, 2-Chloro-6-(trimethylsilyl)-benzenecarbothioic acid, S-(1-methylethyl) ester]",12,12,62,–,–,–
"CCCSC(=O)c1c(Cl)cccc1[Si](C)(C)C [Example 79, 2-Chloro-6-(trimethylsilyl)-benzenecarbothioic acid, S-propyl ester]",12,12,65,–,–,–
"CCC(C)SC(=O)c1c(Cl)cccc1[Si](C)(C)C (stereo not drawn) [Example 80, 2-Chloro-6-(trimethylsilyl)-benzenecarbothioic acid, S-(1-methylpropyl) ester]",< 0,4,46,–,–,–
"CC(C)CSC(=O)c1c(Cl)cccc1[Si](C)(C)C [Example 81, 2-Chloro-6-(trimethylsilyl)-benzenecarbothioic acid, S-(2-methylpropyl) ester]",< 0,< 0,46,–,–,–
"CCN(CC)C(=O)c1c([Si](C)(C)C)ccc(Cl)c1Cl [Example 84, N,N-Diethyl-2,3-dichloro-6-(trimethylsilyl)benzamide]",< 0,66,100,–,–,–
"CCc1ccc([Si](C)(C)C)c(C(=O)N(CC)CC)c1Cl [Example 85, N,N-Diethyl-2-chloro-3-ethyl-6-(trimethylsilyl)benzamide]",7,7,59,–,–,–
"CCN(CC)C(=O)c1c([Si](C)(C)C)ccc([Si](C)(C)C)c1Cl [Example 86, N,N-Diethyl-2-chloro-3,6-bis(trimethylsilyl)benzamide]",< 0,24,72,–,–,–
"CCN(CC)C(=O)c1c([Si](C)(C)C)ccc(F)c1Cl [Example 88, N,N-Diethyl-2-chloro-3-fluoro-6-(trimethylsilyl)benzamide]",< 0,< 0,73,–,–,–
CCNC(=O)c1c(F)cccc1SC(C)(C)C [Example 90],–,–,–,6,34,89
"CCNC(=O)c1c(F)cccc1CC(C)(C)C [Example 93, 2-(2,2-Dimethylpropyl)-N-ethyl-6-fluorobenzamide]",< 0,< 0,26,–,–,–
"CCNC(=O)c1c(F)cccc1-c1ccccc1C [Example 94, N-Ethyl-2-fluoro-6-(2-methylphenyl)benzamide]",9,63,86,–,–,–
"CCCCCCC(C)N(CC)C(=O)c1c(Cl)cccc1[Si](C)(C)C (stereo not drawn) [Example 96, 2-Chloro-N-ethyl-N-(1-methylheptyl)-6-(trimethylsilyl)benzamide]",7,15,48,–,–,–
"CCN(CC)C(=O)c1c(C(F)F)cccc1[Si](C)(C)C [Example 97, 2-(Difluoromethyl)-N,N-diethyl-6-(trimethylsilyl)benzamide]",7,70,100,–,–,–
"CN(Cc1ccc(C(C)(C)C)cc1)C(=O)c1c(Cl)cccc1[Si](C)(C)C [Example 101, 2-Chloro-N-[[4-(1,1-dimethylethyl)phenyl]methyl]-N-methyl-6-(trimethylsilyl)-benzamide]",10,21,62,–,–,–
"C[Si](C)(C)c1cccc(Cl)c1C(=O)NCc1ccc(C(F)(F)F)cc1 [Example 102, 2-Chloro-N-[[4-(trifluoromethyl)phenyl]-methyl]-6-(trimethylsilyl)-benzamide]",28,52,28,–,–,–
"CCN(CC=CC#CC(C)(C)C)C(=O)c1c(Cl)cccc1[Si](C)(C)C [Example 104, 2-Chloro-N-(6,6-dimethyl-2-hepten-4-ynyl)-N-ethyl-6-(trimethylsilyl)benzamide]",< 0,26,71,–,–,–
"CN(CC=Cc1ccccc1)C(=O)c1c(Cl)cccc1[Si](C)(C)C [Example 105, 2-Chloro-N-methyl-N-(3-phenyl-2-propenyl)-6-(trimethylsilyl)benzamide]",3,37,84,–,–,–

Structure (SMILES),inhibition at 0.1 ppm [%],inhibition at 1 ppm [%],inhibition at 10 ppm [%],"In vitro (ppm) 0.1, Percent Inhibition [%]","In vitro (ppm) 1, Percent Inhibition [%]","In vitro (ppm) 10, Percent Inhibition [%]"
"C#CC(C)(C)NC(=O)c1c(Cl)cccc1[Si](C)(C)C [Example 107, 2-Chloro-N-(1,1-dimethyl-2-propynyl)-6-(trimethylsilyl)benzamide]",< 0,< 0,24,–,–,–
"C#CCNC(=O)c1c(Cl)cccc1[Si](C)(C)C [Example 108, 2-Chloro-N-(2-propynyl)-6-(trimethylsilyl)benzamide]",90,86,97,–,–,–
"CCOC(=O)Nc1c(Cl)cccc1[Si](C)(C)C [Example 109, [2-Chloro-6-(trimethylsilyl)phenyl]carbamic acid, ethyl ester]",10,10,83,–,–,–
"CCNC(=O)Nc1c(Cl)cccc1[Si](C)(C)C [Example 110, N-[2-Chloro-6-(trimethylsilyl)phenyl]-N′-ethylurea]",7,17,45,–,–,–
"C/C=C\NC(=O)c1c(Cl)cccc1[Si](C)(C)C [Example 112, (Z)-2-Chloro-N-1-propenyl-6-(trimethylsilyl)benzamide]",81,96,100,–,–,–
"C/C=C/NC(=O)c1c(Cl)cccc1[Si](C)(C)C [Example 113, (E)-2-Chloro-N-1-propenyl-6-(trimethylsilyl)benzamide]",< 0,26,96,–,–,–
"CCNC(=O)c1c(Cl)ccc[c]1[Sn]([CH3])([CH3])[CH3] [Example 115, 2-Chloro-N-ethyl-6-(trimethylstannyl)benzamide]",–,–,–,97,97,97
"CCNC(=O)c1c(F)cccc1[Si](C)(C)C [Example 117, N-Ethyl-2-fluoro-6-(trimethylsilyl)benzamide]",36,94,97,–,–,–
"C[Si](C)(C)c1ccc(F)c([Si](C)(C)C)c1C(=O)N1CCCC1 [Example 118, 1-[3-Fluoro-2,6-bis(trimethylsilyl)benzoyl]pyrrolidine]",< 0,< 0,38,–,–,–
"Cc1ccccc1NC(=O)c1c(Br)cccc1[Si](C)(C)C [Example 120, 2-Bromo-N-(2-methylphenyl)-6-(trimethylsilyl)benzamide]",< 0,26,100,–,–,–
"Cc1ccccc1NC(=O)c1ccccc1[Si](C)(C)C [Example 121, N-(2-Methylphenyl)-2-(trimethylsilyl)benzamide]",4,8,31,–,–,–
"CCNC(=O)c1c(Cl)cccc1-c1ccc2ccccc2c1 [Example 122, 2-Chloro-N-ethyl-6-(2-naphthalenyl)benzamide]",< 0,< 0,67,–,–,–
"CCNC(=O)c1c(F)cccc1C1(C)CCCC1 [Example 123, N-Ethyl-2-fluoro-6-(1-methylcyclopentyl)benzamide]",11,78,89,–,–,–
"CCNC(=O)c1ccncc1[Si](C)(C)C [Example 124, N-Ethyl-3-(trimethylsilyl)-4-pyridinecarboxamide]",< 0,< 0,62,–,–,–
"CCN(Cc1ccco1)C(=O)c1c(Cl)cccc1[Si](C)(C)C [Example 125, 2-Chloro-N-ethyl-N-(2-furylmethyl)-6-(trimethylsilyl)benzamide]",< 0,< 0,89,–,–,–
"CC(C)N(C(=O)c1c(Cl)cccc1[Si](C)(C)C)C(C)C [Example 126, 2-Chloro-N,N-bis(1-methylethyl)-6-(trimethylsilyl)benzamide]",15,4,93,–,–,–
"CCN(COC)C(=O)c1c(C)cccc1[Si](C)(C)C [Example 127, N-Ethyl-N-(methoxymethyl)-2-methyl-6-(trimethylsilyl)benzamide]",< 0,21,74,–,–,–
